These results are taken from patent publication US5298492A, “Diamino acid derivatives as antihypertensives” (Schering Corporation, priority 1992, dated 1994).

In experiment [1] the target is NEP (neutral endopeptidase) (Homo sapiens, UniProt P08473). Nature of the experiment: NEP inhibition IC50. It counts as biochemical.
Experiment [2] has as its target ACE (angiotensin converting enzyme) (Homo sapiens, UniProt P12821). Nature of the experiment: ACE inhibition IC50. It is filed as biochemical.

Sequence of NEP (neutral endopeptidase) (P08473 whole entry, species assumed): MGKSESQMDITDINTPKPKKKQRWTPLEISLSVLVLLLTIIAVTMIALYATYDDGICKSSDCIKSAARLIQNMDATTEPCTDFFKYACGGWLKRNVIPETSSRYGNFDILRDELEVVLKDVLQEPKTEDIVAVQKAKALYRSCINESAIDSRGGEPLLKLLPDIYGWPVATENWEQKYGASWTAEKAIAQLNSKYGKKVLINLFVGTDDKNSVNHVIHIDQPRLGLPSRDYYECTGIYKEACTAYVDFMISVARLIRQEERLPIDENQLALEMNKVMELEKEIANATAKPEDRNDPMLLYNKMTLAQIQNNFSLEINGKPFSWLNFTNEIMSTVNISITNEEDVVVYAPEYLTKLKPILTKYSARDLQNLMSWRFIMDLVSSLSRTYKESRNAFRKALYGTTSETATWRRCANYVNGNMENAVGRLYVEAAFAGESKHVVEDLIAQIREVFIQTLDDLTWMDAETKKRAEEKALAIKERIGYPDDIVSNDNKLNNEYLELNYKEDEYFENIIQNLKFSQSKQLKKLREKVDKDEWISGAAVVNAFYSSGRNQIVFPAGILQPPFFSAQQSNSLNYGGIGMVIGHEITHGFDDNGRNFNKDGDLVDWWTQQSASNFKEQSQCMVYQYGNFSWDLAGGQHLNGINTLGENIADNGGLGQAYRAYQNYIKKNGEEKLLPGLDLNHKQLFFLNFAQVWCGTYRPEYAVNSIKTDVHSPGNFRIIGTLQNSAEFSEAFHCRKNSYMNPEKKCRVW
Sequence of ACE (angiotensin converting enzyme) (P12821 30-1306, species assumed): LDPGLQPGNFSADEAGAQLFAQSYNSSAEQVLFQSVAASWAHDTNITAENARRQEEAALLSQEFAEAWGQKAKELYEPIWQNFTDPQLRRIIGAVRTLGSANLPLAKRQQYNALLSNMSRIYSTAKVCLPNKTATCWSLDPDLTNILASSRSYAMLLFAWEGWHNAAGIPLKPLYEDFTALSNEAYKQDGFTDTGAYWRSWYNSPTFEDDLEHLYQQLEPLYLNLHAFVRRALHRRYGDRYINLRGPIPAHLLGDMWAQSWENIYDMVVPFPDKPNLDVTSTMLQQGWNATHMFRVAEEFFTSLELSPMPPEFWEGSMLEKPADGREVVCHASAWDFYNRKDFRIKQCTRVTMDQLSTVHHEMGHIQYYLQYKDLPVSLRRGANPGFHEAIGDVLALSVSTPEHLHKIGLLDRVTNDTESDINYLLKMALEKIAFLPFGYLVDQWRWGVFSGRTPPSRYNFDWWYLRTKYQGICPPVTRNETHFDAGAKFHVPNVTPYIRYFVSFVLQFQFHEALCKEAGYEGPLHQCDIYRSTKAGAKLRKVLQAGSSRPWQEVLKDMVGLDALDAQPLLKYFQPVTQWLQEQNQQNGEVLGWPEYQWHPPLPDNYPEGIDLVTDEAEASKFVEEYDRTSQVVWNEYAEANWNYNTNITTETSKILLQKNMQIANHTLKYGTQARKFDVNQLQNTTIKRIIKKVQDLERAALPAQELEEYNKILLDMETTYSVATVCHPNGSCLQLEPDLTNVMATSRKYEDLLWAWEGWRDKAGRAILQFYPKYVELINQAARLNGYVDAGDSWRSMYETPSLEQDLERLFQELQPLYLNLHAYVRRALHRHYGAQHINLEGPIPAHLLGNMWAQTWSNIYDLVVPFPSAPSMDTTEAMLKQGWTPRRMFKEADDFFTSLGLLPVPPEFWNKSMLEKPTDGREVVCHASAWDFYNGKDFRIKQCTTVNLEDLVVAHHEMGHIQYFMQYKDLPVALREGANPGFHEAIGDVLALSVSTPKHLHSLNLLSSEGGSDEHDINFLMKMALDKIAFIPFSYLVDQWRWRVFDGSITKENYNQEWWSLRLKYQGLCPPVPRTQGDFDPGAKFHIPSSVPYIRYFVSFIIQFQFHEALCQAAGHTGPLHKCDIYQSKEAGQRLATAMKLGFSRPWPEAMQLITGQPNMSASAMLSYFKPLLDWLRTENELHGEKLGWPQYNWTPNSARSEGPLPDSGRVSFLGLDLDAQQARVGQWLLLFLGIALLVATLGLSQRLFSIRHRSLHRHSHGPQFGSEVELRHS

Take `CCOC(=O)[C@H](CNC(=O)[C@H](CCCCNC(=O)OCc1ccccc1)NS(C)(=O)=O)N[C@@H](Cc1ccccc1)C(=O)N[C@@H](Cc1ccc(O)cc1)C(=O)O`: the figures for the concentration for half-maximal inhibition (IC50) in experiment [1] and in experiment [2] were above 300 nM and above 1000 nM, respectively.

`COC(=O)[C@H](CNC(=O)[C@H](CCCCNC(=O)OCc1ccccc1)NS(C)(=O)=O)N[C@H](C(=O)N[C@@H](Cc1ccc(O)cc1)C(=O)O)C(C)C`: the IC50 (usually the concentration needed to halve the response being measured) is 240 nM in experiment [1] and above 1000 nM in experiment [2].

For `CCC[C@H](N[C@@H](CNC(=O)[C@H](CCCCNC(=O)OCc1ccccc1)NS(C)(=O)=O)C(=O)O)C(=O)N[C@@H](Cc1ccc(O)cc1)C(=O)OC`, the IC50 came out at 78 nM in experiment [1] and 300 nM in experiment [2].

Regarding `CS(=O)(=O)N[C@@H](CCCCN)C(=O)NC[C@H](NC1(C(=O)N[C@@H](Cc2ccc(O)cc2)C(=O)O)CCCCC1)C(=O)O`, in experiment [1], half-maximal inhibition (IC50) required 190 nM.

`CS(=O)(=O)N[C@@H](CCCCN)C(=O)NC[C@H](NC(C(=O)N[C@@H](Cc1ccc(O)cc1)C(=O)O)C1CC1)C(=O)O` (single isomer, unassigned) [listing 1 of 2 here]: the figures for the IC50 in experiment [1] and in experiment [2] were above 300 nM and 300 nM, respectively.

On to `CCOC(=O)[C@H](Cc1ccc(O)cc1)NC(=O)[C@H](Cc1ccccc1)N[C@@H](CNC(=O)[C@H](CCCCN)NS(C)(=O)=O)C(=O)O`, for which the results for the IC50 in experiment [1] and in experiment [2] were 40 nM and 650 nM, respectively.

As for `CCC[C@H](N[C@@H](CNC(=O)[C@H](CCCCN)NS(C)(=O)=O)C(=O)O)C(=O)N[C@@H](Cc1ccc(O)cc1)C(=O)O`, the IC50 in experiment [1] was 6 nM; in experiment [2], 30 nM.

With `CS(=O)(=O)N[C@@H](CCCCN)C(=O)NC[C@H](N[C@@H](Cc1ccccc1)C(=O)N[C@@H](Cc1ccc(O)cc1)C(=O)OCCc1ccccc1)C(=O)O`, the IC50 in experiment [1] is 68 nM; in experiment [2], 175 nM.

Regarding `CC(C)[C@H](N[C@@H](CNC(=O)[C@H](CCCCN)NS(C)(=O)=O)C(=O)O)C(=O)N[C@@H](Cc1ccc(O)cc1)C(=O)O`, the IC50 in experiment [1] amounted to 7 nM; in experiment [2], 50 nM.

Regarding `CS(=O)(=O)N[C@@H](CCCCN)C(=O)NC[C@H](NC(C(=O)N[C@@H](Cc1ccc(O)cc1)C(=O)O)C1CC1)C(=O)O` (single isomer, unassigned) [listing 2 of 2 here], the IC50 was 40 nM in experiment [1] and 15 nM in experiment [2].

`CS(=O)(=O)N[C@@H](CCCCN)C(=O)NC[C@H](N[C@H](C(=O)N[C@@H](Cc1ccc(O)cc1)C(=O)O)C1CCCCC1)C(=O)O`: the IC50 in experiment [1] is above 300 nM; in experiment [2], 121 nM.

As for `CCOC(=O)[C@H](Cc1ccc(O)cc1)NC(=O)[C@H](Cc1ccccc1)N[C@@H](CNC(=O)[C@H](CCCCNC(=O)OCc1ccccc1)NS(C)(=O)=O)C(=O)O`, the IC50 in experiment [1] was determined as 38 nM; in experiment [2] it was 50 nM.

With `CS(=O)(=O)N[C@@H](CCCCN)C(=O)NC[C@H](N[C@@H](Cc1ccccc1)C(=O)N[C@@H](Cc1ccc(O)cc1)C(=O)O)C(=O)O` [drawing 100: R1=CH3SO2NH; R5=OH; R6=OH; Z=NH2], the IC50 was found to be 35 nM in experiment [1] and 50 nM in experiment [2].

Regarding `CCC[C@H](N[C@@H](CNC(=O)[C@H](CCCCN)NS(C)(=O)=O)C(=O)O)C(=O)N[C@@H](Cc1cccc(NS(C)(=O)=O)c1)C(=O)O`, the IC50 worked out at 200 nM in experiment [1] and 40 nM in experiment [2].

With `O=C(CCCCCNC(=O)OCc1ccccc1)NC[C@H](N[C@@H](Cc1ccccc1)C(=O)N[C@@H](Cc1ccc(O)cc1)C(=O)O)C(=O)O` [drawing 100: R1=H; R5=OH; R6=OH; Z=CbzNH], the half-maximal inhibitory concentration (IC50) was 30 nM in experiment [1] and 65 nM in experiment [2].

In the case of `CCOC(=O)[C@H](CNC(=O)[C@H](CCCCN)NS(C)(=O)=O)N[C@@H](Cc1ccccc1)C(=O)N[C@@H](Cc1ccc(O)cc1)C(=O)O`, the IC50 in experiment [1] is 300 nM; in experiment [2], above 1000 nM.

For `CS(=O)(=O)N[C@@H](CCCCNC(=O)OCc1ccccc1)C(=O)NC[C@H](N[C@H](C(=O)N[C@@H](Cc1ccc(O)cc1)C(=O)O)C1CCCCC1)C(=O)O`, the IC50 in experiment [1] was above 300 nM; in experiment [2], 250 nM.

In the case of `COC(=O)[C@H](CNC(=O)[C@H](CCCCN)NS(C)(=O)=O)N[C@H](C(=O)N[C@@H](Cc1ccc(O)cc1)C(=O)O)C(C)C`, the values for the IC50 in experiment [1] and in experiment [2] were above 300 nM and above 1000 nM, respectively.

`CCC[C@H](N[C@@H](CNC(=O)[C@H](CCCCNC(=O)OCc1ccccc1)NS(C)(=O)=O)C(=O)O)C(=O)N[C@@H](Cc1ccc(O)cc1)C(=O)O`: the values for the half-maximal inhibitory concentration (IC50) in experiment [1] and in experiment [2] were 2 nM and 15 nM, respectively.

As for `CS(=O)(=O)N[C@@H](CCCCN)C(=O)NC[C@H](NC1(C(=O)N[C@@H](Cc2ccc(O)cc2)C(=O)O)CC1)C(=O)O`, the values for the IC50 in experiment [1] and in experiment [2] were above 300 nM and 150 nM, respectively.

Take `CCC[C@H](N[C@@H](CNC(=O)[C@H](CCCCN)NS(C)(=O)=O)C(=O)O)C(=O)N[C@@H](Cc1ccc(O)cc1)C(=O)OC`: the concentration for half-maximal inhibition (IC50) in experiment [1] worked out at 270 nM.

With `NCCCCCC(=O)NC[C@H](N[C@@H](Cc1ccccc1)C(=O)N[C@@H](Cc1ccc(O)cc1)C(=O)O)C(=O)O` [drawing 100: R1=H; R5=OH; R6=OH; Z=NH2], the IC50 in experiment [1] is 16 nM; in experiment [2], 60 nM.

With `CCC[C@H](N[C@@H](CNC(=O)[C@H](CCCCNC(=O)OCc1ccccc1)NS(C)(=O)=O)C(=O)O)C(=O)N[C@@H](Cc1cccc(NS(C)(=O)=O)c1)C(=O)OCC`, the IC50 in experiment [1] is 70 nM; in experiment [2] it was 400 nM.

As for `CS(=O)(=O)N[C@@H](CCCCN)C(=O)NC[C@H](NC1(C(=O)N[C@@H](Cc2ccc(O)cc2)C(=O)O)CCCC1)C(=O)O`, the values for the concentration for half-maximal inhibition (IC50) in experiment [1] and in experiment [2] were 35 nM and 45 nM, respectively.

In turn, `CS(=O)(=O)N[C@@H](CCCCN)C(=O)NC[C@H](NC1(C(=O)N[C@@H](Cc2ccc(O)cc2)C(=O)O)CCC1)C(=O)O` came in with a concentration for half-maximal inhibition (IC50) in experiment [1] of 42 nM.

Take `CC(C)[C@H](N[C@@H](CNC(=O)[C@H](CCCCNC(=O)OCc1ccccc1)NS(C)(=O)=O)C(=O)O)C(=O)N[C@@H](Cc1ccc(O)cc1)C(=O)O`: the IC50 in experiment [1] stood at 2 nM; in experiment [2], 30 nM.

Turning to `CCN=C(NCC)NCCCC[C@H](NS(C)(=O)=O)C(=O)NC[C@H](N[C@@H](Cc1ccccc1)C(=O)N[C@@H](Cc1ccc(O)cc1)C(=O)O)C(=O)O`, the values for the IC50 in experiment [1] and in experiment [2] were 95 nM and 8 nM, respectively.

Consider `CS(=O)(=O)Nc1cccc(C[C@H](NC(=O)[C@H](Cc2ccccc2)N[C@@H](CNC(=O)[C@H](CCCCN)NS(C)(=O)=O)C(=O)O)C(=O)O)c1`, for which the IC50 is 25 nM in experiment [1] and 15 nM in experiment [2].

In the case of `CS(=O)(=O)N[C@@H](CCCCNC(=O)OCc1ccccc1)C(=O)NC[C@H](N[C@@H](Cc1ccccc1)C(=O)N[C@@H](Cc1ccc(O)cc1)C(=O)O)C(=O)O`, the half-maximal inhibitory concentration (IC50) in experiment [1] came to 18 nM; in experiment [2], 9 nM.
